This note sets out measurements from patent publication US10550100B2, “5-[3-[piperzin-1-yl]-3-oxo-propyl]-imidazolidine-2,4-dione derivatives as ADAMTS 4 and 5 inhibitors for treating E.G. osteoarthritis” (GALAPAGOS NV, priority 2016, dated 2020).

The structures appear in SMILES notation. pIC50: −log10 of the molar value. Like-named read-outs stand apart in the source and are kept apart here.

Holding throughout (type): biochemical
Assay [1] addresses T1, human ADAMTS-5 (Homo sapiens (Human), UniProt Q9UNA0). The assay is described as follows: hADAMTS-5 TBIS-1 cleavage assay, Protocol 3. As to conditions: Protocol 3, TBIS-1 substrate, 90 min at 37° C.; read-out: hADAMTS-5 potency IC50. How it is done: (§1) The reaction is initiated by adding to the assay plate TBIS-1 (10 μL, 4.5 μM, Anaspec) in the same buffer.
Finally, the fluorescence is read on the Envision (Perkin Elmer) after an incubation of 90 min at 37° C. (Excitation 485 nm, emission 530).

The target of assay [2] is T2, human MMP13 (Homo sapiens (Human), UniProt P45452). Nature of the assay: hMMP13 390 MMP FRET Substrate I cleavage assay, Protocol 1. As to conditions: Protocol 1, 390 MMP FRET Substrate I; read-out: hMMP-13 potency IC50. On the procedure:
(§2) The basis for the assay is the cleavage of the substrate 390 MMP FRET Substrate I (Anaspec Cat# AS-27076) by human MMP13 (Chemicon, Cat#CC068).
(§3) Human MMP13 is preactivated by incubated the enzyme in the same buffer complemented with 1 mM freshly prepared p-Aminophenylmercuric acetate (AMPA) for 1 h at 37° C.
(§4) The reaction is initiated by adding to the assay plate 390 MMP FRET Substrate I (10 μL, 2.5 μM) in the same buffer.
(§5) Finally, the fluorescence is read on the Envision (Perkin Elmer) after an incubation of 45 min at room temperature (Excitation 485 nm, Emission 530).

The target in assay [3] is human TACE (Homo sapiens (Human), UniProt P78536). The assay is described as follows: hTACE 5FAM-[…]-5TAMRA cleavage assay. As to conditions: 75 min at room temperature, read-out: hTACE potency IC50. On the procedure:
Finally, the fluorescence is read on the Envision (Perkin Elmer) after an incubation of 75 min at room temperature (Excitation 485 nm, Emission 530).

Assay [4] addresses rnADAMTS-5 (1-564-6H) (Rattus norvegicus (Rat), UniProt Q6TY19). The assay is described as follows: Rat ADAMTS-5 TBIS-1 substrate cleavage assay. As to conditions: rnADAMTS-5, TBIS-1 substrate, 120 min at 37° C.; read-out: Rat ADAMTS-5 potency IC50. How it is done: The basis for the assay is the cleavage of the substrate TBIS-1 (5 FAM-[…] (5TAMRA)K-NH2) (SEQ ID NO: 2) by rnADAMTS-5 (1-564-6H).
as §1
Finally, the fluorescence is read on the Envision (Perkin Elmer) after an incubation of 120 min at 37° C. (Excitation 485 nm, emission 535).

In assay [5] the target is human ADAMTS6 (Homo sapiens (Human), UniProt Q9UKP5). The assay is described as follows: hADAMTS-6 520 MMP FRET substrate XII cleavage assay. As to conditions: 37° C. for 2 h, read-out: hADAMTS-6 potency IC50. Put shortly: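 FRET cleavage of 520 MMP Substrate XII (Arg-Pro-Lys-Pro-Tyr-Ala-Nva-Trp-Met-Lys) by 0.73 nM enzyme in 25 mM Tris pH8.0, 0.05% CHAPS, 2.5 mM CaCl2. Compound dilution series from 20 μM top, 1/5 steps; substrate added from 1 μM stock, 2 h at 37° C. Fluorescence read at exc485/em530 for IC50.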

Assay [6] concerns the target T1, human ADAMTS-5. The assay is described as follows: hADAMTS-5 TBIS-1 cleavage assay, Protocol 2. As to conditions: Protocol 2, TBIS-1 substrate, 45 min at 37° C.; read-out: hADAMTS-5 potency IC50. How it is done: The basis for the assay is the cleavage of the substrate TBIS-1 (5 FAM-[…] (5TAMRA)K-NH2) (SEQ ID NO: 2) by human ADAMTS-5.
as §1
Finally, the fluorescence is read on the Envision (Perkin Elmer) after an incubation of 45 min at 37° C. (Excitation 485 nm, emission 530).

In assay [7] the target is T2, human MMP13. Nature of the assay: hMMP13 390 MMP FRET Substrate I cleavage assay, Protocol 2. As to conditions: Protocol 2, 390 MMP FRET Substrate I; read-out: hMMP-13 potency IC50. How it is done: as §2, §3, §4, §5
Assay [8] deals with human MMP14 (Homo sapiens (Human), UniProt P50281). Nature of the assay: hMMP14 390 MMP FRET Substrate I cleavage assay. As to conditions: 60 min at room temperature, read-out: hMMP-14 potency IC50. On the procedure:
The basis for the assay is the cleavage of the substrate 390 MMP FRET Substrate I (Anaspec Cat# AS-27076) by human MMP14 (Biomol, Cat#SE-259).
as §4
Finally, the fluorescence is read on the Envision (Perkin Elmer) after an incubation of 60 min at room temperature (Excitation 485 nm, Emission 530).

human TACE, sequence (P78536 215-671): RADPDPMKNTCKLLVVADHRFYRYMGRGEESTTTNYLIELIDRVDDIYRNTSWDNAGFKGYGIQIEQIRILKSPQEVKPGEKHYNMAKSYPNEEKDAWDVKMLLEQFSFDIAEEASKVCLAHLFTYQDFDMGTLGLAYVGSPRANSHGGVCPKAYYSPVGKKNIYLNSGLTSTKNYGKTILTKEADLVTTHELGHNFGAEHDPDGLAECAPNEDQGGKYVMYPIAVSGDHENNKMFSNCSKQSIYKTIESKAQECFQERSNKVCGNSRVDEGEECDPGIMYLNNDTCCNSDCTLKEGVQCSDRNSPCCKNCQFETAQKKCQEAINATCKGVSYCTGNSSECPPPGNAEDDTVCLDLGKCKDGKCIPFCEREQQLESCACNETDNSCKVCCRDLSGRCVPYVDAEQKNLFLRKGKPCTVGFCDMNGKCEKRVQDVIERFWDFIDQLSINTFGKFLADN
rnADAMTS-5 (1-564-6H), sequence (Q6TY19 entry or part of it): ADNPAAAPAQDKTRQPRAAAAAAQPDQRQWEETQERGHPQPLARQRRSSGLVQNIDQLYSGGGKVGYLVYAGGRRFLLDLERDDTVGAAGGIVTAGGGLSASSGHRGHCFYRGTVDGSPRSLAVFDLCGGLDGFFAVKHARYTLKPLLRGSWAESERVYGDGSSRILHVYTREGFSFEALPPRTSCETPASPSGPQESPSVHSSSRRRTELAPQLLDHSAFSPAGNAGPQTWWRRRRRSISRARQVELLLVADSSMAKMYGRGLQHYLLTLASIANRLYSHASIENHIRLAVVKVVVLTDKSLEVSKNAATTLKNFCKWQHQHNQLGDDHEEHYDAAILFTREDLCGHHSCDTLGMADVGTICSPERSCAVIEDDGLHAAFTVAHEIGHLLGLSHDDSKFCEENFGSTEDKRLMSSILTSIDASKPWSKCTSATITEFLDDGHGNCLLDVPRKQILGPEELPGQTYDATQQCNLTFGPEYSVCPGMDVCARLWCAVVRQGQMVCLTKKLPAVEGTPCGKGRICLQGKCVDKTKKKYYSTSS
T1 sequence (Q9UNA0 262-930): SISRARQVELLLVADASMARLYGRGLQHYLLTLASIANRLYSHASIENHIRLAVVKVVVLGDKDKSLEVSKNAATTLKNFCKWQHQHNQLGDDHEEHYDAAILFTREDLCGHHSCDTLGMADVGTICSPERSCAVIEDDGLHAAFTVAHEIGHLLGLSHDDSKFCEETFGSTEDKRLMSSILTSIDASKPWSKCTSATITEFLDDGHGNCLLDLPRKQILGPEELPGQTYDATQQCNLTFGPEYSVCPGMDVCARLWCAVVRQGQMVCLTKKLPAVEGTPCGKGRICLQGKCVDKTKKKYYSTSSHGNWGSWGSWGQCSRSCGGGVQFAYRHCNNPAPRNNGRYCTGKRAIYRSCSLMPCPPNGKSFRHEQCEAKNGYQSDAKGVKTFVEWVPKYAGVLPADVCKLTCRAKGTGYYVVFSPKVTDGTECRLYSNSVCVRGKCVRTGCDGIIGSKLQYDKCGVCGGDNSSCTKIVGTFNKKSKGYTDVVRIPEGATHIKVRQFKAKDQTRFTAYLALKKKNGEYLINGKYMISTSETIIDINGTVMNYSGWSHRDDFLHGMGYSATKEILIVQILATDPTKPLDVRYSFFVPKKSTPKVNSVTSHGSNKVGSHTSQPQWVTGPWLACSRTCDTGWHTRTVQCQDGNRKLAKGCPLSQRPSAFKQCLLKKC
human ADAMTS6, sequence (Q9UKP5 other isoform, or with tags, fused parts or gaps): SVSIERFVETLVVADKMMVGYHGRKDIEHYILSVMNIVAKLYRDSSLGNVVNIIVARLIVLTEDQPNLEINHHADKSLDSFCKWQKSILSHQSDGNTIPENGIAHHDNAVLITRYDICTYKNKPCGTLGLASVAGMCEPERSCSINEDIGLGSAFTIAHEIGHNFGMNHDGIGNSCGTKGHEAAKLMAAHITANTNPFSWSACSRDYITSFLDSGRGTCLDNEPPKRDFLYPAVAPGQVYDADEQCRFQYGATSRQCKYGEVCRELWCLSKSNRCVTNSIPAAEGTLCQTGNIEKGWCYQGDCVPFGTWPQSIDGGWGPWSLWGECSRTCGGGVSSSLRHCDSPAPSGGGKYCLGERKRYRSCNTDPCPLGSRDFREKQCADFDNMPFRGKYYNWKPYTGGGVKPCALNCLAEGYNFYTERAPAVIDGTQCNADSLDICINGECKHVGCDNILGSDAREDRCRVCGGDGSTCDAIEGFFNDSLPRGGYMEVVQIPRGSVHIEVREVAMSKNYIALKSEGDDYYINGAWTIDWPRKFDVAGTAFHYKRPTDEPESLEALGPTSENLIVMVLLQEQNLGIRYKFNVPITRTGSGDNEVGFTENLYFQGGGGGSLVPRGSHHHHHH

One may read the pIC50 as the negative decadic logarithm of the IC50, by convention in mol/L. As for `Cc1cccc(C2CCN(C(=O)[C@@H](C)C[C@@]3(C)NC(=O)NC3=O)CC2)c1` (stereo in doubt) [Cpd 27, 5-methyl-5-(2-methyl-3-oxo-3-(4-m-tolylpiperidin-yl)propyl) imidazolidine-2,4-dione], the negative logarithm of the IC50 (pIC50) in assay [1] is 7.30 to 7.60; in assay [2], less than 7.00; in assay [3] (5FAM-[…]-5TAMRA), 7.00 to 7.30; in assay [4] it was 7.30 to 7.60; in assay [5], 7.30 to 7.60.
For the molecule `C[C@@H](C[C@@]1(C)NC(=O)NC1=O)C(=O)N1CCC(c2ccc(F)cc2)CC1` (stereo in doubt) [Cpd 26, 5-(3-(4-(4-fluorophenyl)piperidin-1-yl)-2-methyl-3-oxopropyl)-5-methyl-imidazolidine-2,4-dione], the pIC50 in assay [1] is 7.00 to 7.30; in assay [2] it was less than 7.00; in assay [3] (5FAM-LAQAVRSSSRK-5TAMRA), less than 7.00; in assay [4], 7.00 to 7.30; in assay [5], 7.30 to 7.60.
In the case of `C[C@@H](C[C@@]1(C)NC(=O)NC1=O)C(=O)N1CCC(c2cccc(F)c2)CC1` (stereo in doubt) [Cpd 28, 5-(3-(4-(3-fluorophenyl)piperidin-1-yl)-2-methyl-3-oxopropyl)-5-methyl-imidazolidine-2,4-dione], the pIC50 was 7.30 to 7.60 in assay [1]; less than 7.00 in assay [2]; less than 7.00 in assay [3] (5FAM-LAQAVRSSSRK-5TAMRA); 7.60 to 12.00 in assay [4]; 7.00 to 7.30 in assay [5].
With `CC1(CCC(=O)N2CCC(c3ccccc3F)CC2)NC(=O)NC1=O` (stereo not shown) [Cpd 14, 5-(3-(4-(2-fluorophenyl)piperidin-1-yl)-3-oxopropyl)-5-methyl-imidazolidine-2,4-dione], the pIC50 in assay [6] and in assay [5] was less than 7.00 in each case.
For the molecule `C[C@@H](C[C@@]1(C2CC2)NC(=O)NC1=O)C(=O)N1CCC(c2ccccc2)CC1` [Cpd 20], the negative logarithm of the IC50 (pIC50) in assay [1] was 7.00 to 7.30; in assay [2], less than 7.00; in assay [3] (5FAM-LAQAVRSSSRK-5TAMRA), less than 7.00; in assay [4] it was 7.00 to 7.30; in assay [5], less than 7.00.
As to `C[C@@H](C[C@@]1(C)NC(=O)NC1=O)C(=O)N1CCC(c2cc(Cl)cc(Cl)c2)CC1` (stereo in doubt) [Cpd 25, 5-(3-(4-(3,5-dichlorophenyl)piperidin-1-yl)-2-methyl-3-oxopropyl)-5-methyl-imidazolidine-2,4-dione], the pIC50 was 7.30 to 7.60 in assay [1]; less than 7.00 in assay [2]; 7.00 to 7.30 in assay [3] (5FAM-[…]-5TAMRA); 7.30 to 7.60 in assay [4]; 7.60 to 12.00 in assay [5].
For the molecule `O=C1NC(=O)C(CCC(=O)N2CCC(c3cccc(Cl)c3)CC2)(C2CC2)N1` (stereo not shown) [Cpd 18, 5-(3-(4-(3-chlorophenyl)piperidin-1-yl)-3-oxopropyl)-5-cyclopropyl-imidazolidine-2,4-dione], the pIC50 in assay [1] was 7.30 to 7.60; in assay [2] it was less than 7.00; in assay [3] (5FAM-LAQAVRSSSRK-5TAMRA), less than 7.00; in assay [4], 7.00 to 7.30; in assay [5], less than 7.00.
In the case of `COc1cc(C2CCN(C(=O)CCC3(C)NC(=O)NC3=O)CC2)cc(OC)c1Cl` (stereo not shown) [Cpd 22, 5-(3-(4-(4-chloro-3,5-dimethoxy-phenyl)piperidin-1-yl)-3-oxopropyl)-5-methyl-imidazolidine-2,4-dione], the negative-log IC50 (pIC50) in assay [1] was less than 7.00; in assay [2] it was less than 7.00; in assay [3] (5FAM-[…]-5TAMRA), 7.00 to 7.30; in assay [4], less than 7.00; in assay [5] it was 7.60 to 12.00.
Regarding `O=C1NC(=O)C(CCC(=O)N2CCC(c3cc(Cl)cc(Cl)c3)CC2)(C2CC2)N1` (stereo not shown) [Cpd 17, 5-cyclopropyl-5-(3-(4-(3,5-dichlorophenyl)piperidin-1-yl)-3-oxopropyl) imidazolidine-2,4-dione], the negative-log IC50 (pIC50) is 7.00 to 7.30 in assay [1]; less than 7.00 in assay [2]; less than 7.00 in assay [3] (5FAM-LAQAVRSSSRK-5TAMRA); 7.00 to 7.30 in assay [4]; 7.00 to 7.30 in assay [5].
For `C[C@@H](C[C@@]1(C)NC(=O)NC1=O)C(=O)N1CCC(c2ccccc2)CC1` [Cpd 23, (R)-5-methyl-5-((S)-2-methyl-3-oxo-3-(4-phenylpiperidin-1-yl)propyl) imidazolidine-2,4-dione], the pIC50 in assay [1] was 7.00 to 7.30; in assay [2], less than 7.00; in assay [3] (5FAM-LAQAVRSSSRK-5TAMRA) it was less than 7.00; in assay [4], 7.00 to 7.30; in assay [5], 7.00 to 7.30.
Take `O=C1NC(=O)[C@H](CCC(=O)N2CCC(c3ccccc3)CC2)N1` [Cpd 1, (S)-5-[(3-oxo-3-((4S)-phenylpiperidin-1-yl)propyl]) imidazolidine-2,4-dione]: the pIC50 in assay [6] and in assay [5] was less than 7.00 each time.
In the case of `C[C@@H](C[C@@]1(C)NC(=O)NC1=O)C(=O)N1CCC(c2cccc(Cl)c2)CC1` (stereo in doubt) [Cpd 29, 5-(3-(4-(3-chlorophenyl)piperidin-1-yl)-2-methyl-3-oxopropyl)-5-methyl-imidazolidine-2,4-dione], the negative logarithm of the IC50 (pIC50) is 7.30 to 7.60 in assay [1]; less than 7.00 in assay [2]; 7.00 to 7.30 in assay [3] (5FAM-[…]-5TAMRA); 7.60 to 12.00 in assay [4]; 7.30 to 7.60 in assay [5].
As to `C[C@@H](C[C@@]1(C)NC(=O)NC1=O)C(=O)N1CCC(c2ccc(Cl)cc2)CC1` (stereo in doubt) [Cpd 24, 5-(3-(4-(4-chlorophenyl)piperidin-1-yl)-2-methyl-3-oxopropyl)-5-methyl imidazolidine-2,4-dione], the pIC50 in assay [1] is 7.00 to 7.30; in assay [2] it was less than 7.00; in assay [3] (5FAM-LAQAVRSSSRK-5TAMRA), less than 7.00; in assay [4], 7.00 to 7.30; in assay [5] it was 7.60 to 12.00.
For `COc1cc(C2CCN(C(=O)CC[C@H]3NC(=O)NC3=O)CC2)cc(OC)c1Cl` [Cpd 21, (R)-5-(3-(4-(4-chloro-3,5-dimethoxy-phenyl)piperidin-1-yl)-3-oxopropyl) imidazolidine-2,4-dione], the pIC50 in assay [1] is less than 7.00; in assay [2], less than 7.00; in assay [3] (5FAM-LAQAVRSSSRK-5TAMRA), less than 7.00; in assay [4], less than 7.00; in assay [5] it was 7.60 to 12.00.
Take `O=C1NC(=O)C(CCC(=O)N2CCC(c3cccc(F)c3)CC2)(C2CC2)N1` (stereo not shown) [Cpd 19, 5-cyclopropyl-5-(3-(4-(3-fluorophenyl)piperidin-1-yl)-3-oxopropyl) imidazolidine-2,4-dione]: the negative-log IC50 (pIC50) was 7.30 to 7.60 in assay [1]; less than 7.00 in assay [2]; less than 7.00 in assay [3] (5FAM-LAQAVRSSSRK-5TAMRA); 7.30 to 7.60 in assay [4]; less than 7.00 in assay [5].
Consider `CCOc1cc(C2CCN(C(=O)CC[C@@]3(C)NC(=O)NC3=O)CC2)cc(OC)c1Cl` [Cpd 87, (5R)-5-[3-[4-(4-chloro-3-ethoxy-5-methoxy-phenyl)-1-piperidyl]-3-oxo-propyl]-5-methyl-imidazolidine-2,4-dione], for which the pIC50 in assay [7] was less than 7.00; in assay [1], less than 7.00; in assay [3] (5FAM-[…]-5TAMRA), 7.00 to 7.30; in assay [8], less than 7.00; in assay [5], 7.60 to 12.00.
For `COc1cc(C2CCN(C(=O)[C@@H](C)C[C@@]3(C)NC(=O)NC3=O)CC2)cc(C)c1Cl` (stereo in doubt) [Cpd 113, 5-[3-[4-(4-chloro-3-methoxy-5-methyl-phenyl)-1-piperidyl]-2-methyl-3-oxo-propyl]-5-methyl-imidazolidine-2,4-dione], the pIC50 in assay [7] is less than 7.00; in assay [1] it was 7.30 to 7.60; in assay [3] (5FAM-[…]-5TAMRA), 7.00 to 7.30; in assay [8], less than 7.00; in assay [5], 7.60 to 12.00.
